Test results reported in patent publication US20260226064A1, “POLYCYCLIC COMPOUND FOR TREATING NEUROLOGICAL DISEASES AND TUMORS” (Shanghai Institute of Organic Chemistry, Chinese Academy of …, priority 2023, published 2026).

Tested on: acetylated microtubule in HEK293T cells
Assay: Microtubule-Stabilizing Activity Assay (acetylated microtubule immunoblot, HEK293T, colchicine challenge)
Type: cell-based
Conditions: 1 h pre-incubation, then colchicine 1 μM 3 h, relative to CNDR-51657 at 500 nM = 1.00; for Microtubule-Stabilizing Activity 50 nM: compound 50 nM; for Microtubule-Stabilizing Activity 500 nM: compound 500 nM
Procedure: Compound solvent: 100% dimethyl sulfoxide (DMSO). Cell line: HEK293T (ATCC, CRL3216). Culture conditions: Cells were cultured in Dulbecco's Modified Eagle's Medium (DMEM) containing 10% fetal bovine serum and 1% penicillin/streptomycin. Cells were cultured at 37° C. in a Thermo-Fisher incubator with a humidified atmosphere of 5% carbon dioxide.
One day prior to the experiment, 100,000 cells were seeded at a density of 200,000 cells/ml in a 24-well plate.
On the day of the experiment, 20 μl of PBS phosphate buffer containing the test compound at experimental concentrations or an equivalent volume of DMSO was added to each well. After incubating at 37° C. for 1 hour, colchicine was added to each well at a final concentration of 1 μM, followed by an additional 3-hour incubation at 37° C. The plate was then placed on ice. The medium in each well was removed, and the cells were washed with ice-cold PBS. After aspirating the PBS, 0.1 mL of ice-cold RIPA lysis buffer (containing 0.5% sodium deoxycholate, 0.1% SDS, 1% NP-40, 5 mM EDTA, pH 8.0) was quickly added. Prior to use, a commercial protease inhibitor cocktail (1:500) and 1 μM deacetylase inhibitor Trichostatin A (Sangon Biotech Co., Ltd.) were added to the cell lysis buffer. The cell lysate were transferred to a 1.5 ml centrifuge tube, sonicated, and centrifuged at 13,000 rpm for 10 minutes. The supernatant was collected, and protein concentration was determined using the BCA assay.
Based on existing literature (Black, 1989; Kurt, 2011), acetylated microtubule was used as an indicator of microtubule polymerization to assess the microtubule-stabilizing efficacy of the compounds. HEK293T cell lysates were analyzed by SDS-PAGE (7.5% gel) and immunoblotted using acetylated microtubule antibody (1:20,000, Sigma-Aldrich, T7451) and α-microtubule antibody (1:2,000, Proteintech, 11224-1-AP). After incubation with fluorescent dye-conjugated IgG (1:40,000, Licor), the blots were visualized using an Odyssey-Dlx imaging system. Grayscale analysis was performed using ImageJ.
The compound activity was quantified with the microtubule-stabilizing activity of CNDR-51657 (C5) (Jane, 2016) at 500 nM as 1.00.

Row | SMILES | Microtubule-Stabilizing Activity 50 nM | Microtubule-Stabilizing Activity 500 nM
1 | CC(C)[C@@H](C)Nc1c(-c2c(F)cc(OCC3[C@H]4CN(C)C[C@@H]34)cc2F)c(Cl)nc2ncnn12 (stereo partly drawn) [Example 22, 5-Chloro-6-(2,6-difluoro-4-(((1R,5S,6r)-3-methyl-3-azabicyclo[3.1.0]hex-6-yl)methoxy)phenyl)-N—((R)-3-methylbutan-2-yl)-[1,2,4]triazolo[1,5-a]pyrimidin-7-amine] | 1.88 | 1.61
2 | Cc1nc2ncnn2c(N[C@H](C)C(C)C)c1-c1c(F)cc(OCC2[C@H]3CNC[C@@H]23)cc1F (stereo partly drawn) [Example 23, 6-(4-(((1R,5S,6r)-3-Azabicyclo[3.1.0]hex-6-yl)methoxy)-2,6-difluorophenyl)-5-methyl-N—((R)-3-methylbutan-2-yl)-[1,2,4]triazolo[1,5-a]pyrimidin-7-amine] | 0.80 | 0.99
3 | C[C@@H](Nc1c(-c2c(F)cc(OCC3[C@H]4CNC[C@@H]34)cc2F)c(Cl)nc2ncnn12)C1CCC1 (stereo partly drawn) [Example 26, 6-(4-(((1R,5S,6r)-3-Azabicyclo[3.1.0]hexan-6-yl)methoxy)-2,6-difluorophenyl)-5-chloro-N—((R)-1-cyclobutylethyl)-[1,2,4]triazolo[1,5-a]pyrimidin-7-amine] | 1.35 | 1.41
4 | C[C@@H](Nc1c(-c2c(F)cc(OCC3[C@H]4CN(C)C[C@@H]34)cc2F)c(Cl)nc2ncnn12)C1CCC1 (stereo partly drawn) [Example 27, 5-Chloro-N—((R)-1-cyclobutylethyl)-6-(2,6-difluoro-4-(((1R,5S,6r)-3-methyl-3-azabicyclo[3.1.0]hexan-6-yl)methoxy)phenyl)-[1,2,4]triazolo[1,5-a]pyrimidin-7-amine] | 1.64 | 1.37
5 | Cc1nc2ncnn2c(N[C@H](C)C2CCC2)c1-c1c(F)cc(OCC2[C@H]3CNC[C@@H]23)cc1F (stereo partly drawn) [Example 28, 6-(4-(((1R,5S,6r)-3-Azabicyclo[3.1.0]hexan-6-yl)methoxy)-2,6-difluorophenyl)-5-methyl-N—((R)-1-cyclobutylethyl)-[1,2,4]triazolo[1,5-a]pyrimidin-7-amine] | 1.65 | 1.43
6 | CC(C)[C@@H](C)Nc1c(-c2c(F)cc(OC[C@@H]3[C@@H]4CNC[C@@H]43)cc2F)c(Cl)nc2ncnn12 [Example 29, 6-(4-(((1R,5S,6s)-3-Azabicyclo[3.1.0]hexan-6-yl)methoxy)-2,6-difluorophenyl)-5-chloro-N—((R)-3-methylbutan-2-yl)-[1,2,4]triazolo[1,5-a]pyrimidin-7-amine] | 0.32 | 1.69
7 | CC(C)[C@@H](C)Nc1c(-c2c(F)cc(OC[C@H]3[C@H]4CN(C)C[C@@H]34)cc2F)c(Cl)nc2ncnn12 [Example 30, 5-Chloro-6-(2,6-difluoro-4-(((1R,5S,6s)-3-methyl-3-azabicyclo[3.1.0]hex-6-yl)methoxy)phenyl)-N—((R)-3-methylbutan-2-yl)-[1,2,4]triazolo[1,5-a]pyrimidin-7-amine] | 0.09 | 0.97
8 | C[C@H](Nc1c(-c2c(F)cc(OC[C@@H]3[C@@H]4CNC[C@@H]43)cc2F)c(Cl)nc2ncnn12)C(F)(F)F [Example 31, 6-(4-(((1R,5S,6s)-3-Azabicyclo[3.1.0]hex-6-yl)methoxy)-2,6-difluorophenyl)-5-chloro-N—((S)-1,1,1-trifluoropropan-2-yl)-[1,2,4]triazolo[1,5-a]pyrimidin-7-amine] | 0.35 | 1.25
9 | C[C@H](Nc1c(-c2c(F)cc(OC[C@H]3[C@H]4CN(C)C[C@@H]34)cc2F)c(Cl)nc2ncnn12)C(F)(F)F [Example 32, 5-Chloro-6-(2,6-difluoro-4-(((1R,5S,6s)-3-methyl-3-azabicyclo[3.1.0]hexan-6-yl)methoxy)phenyl)-N—((S)-1,1,1-trifluoropropan-2-yl)-[1,2,4]triazolo[1,5-a]pyrimidin-7-amine] | 0.07 | 2.51
10 | Fc1cc(OC[C@H]2[C@@H]3CNC[C@@H]32)cc(F)c1-c1c(Cl)nc2ncnn2c1NCC(F)(F)F [Example 33, 6-(4-(((1R,5S,6r)-3-azabicyclo[3.1.0]hexan-6-yl)methoxy)-2,6-difluorophenyl)-5-chloro-N-(2,2,2-trifluoroethyl)-[1,2,4]triazolo[1,5-a]pyrimidin-7-amine] | 1.46 | 1.64
11 | CN1C[C@@H]2[C@@H](COc3cc(F)c(-c4c(Cl)nc5ncnn5c4NCC(F)(F)F)c(F)c3)[C@@H]2C1 [Example 34, 5-Chloro-6-(2,6-difluoro-4-(((1R,5S,6r)-3-methyl-3-azabicyclo[3.1.0]hexan-6-yl)methoxy)phenyl)-N-(2,2,2-trifluoroethyl)-[1,2,4]triazolo[1,5-a]pyrimidin-7-amine] | 1.05 | 2.10
12 | CC(C)[C@@H](C)Nc1c(-c2c(F)cc(O[C@H]3C[C@H]4CNC[C@H]4C3)cc2F)c(Cl)nc2ncnn12 [Example 36, 5-Chloro-6-(2,6-difluoro-4-(((3aR,5r,6aS)-octahydrocyclopenta[c]pyrrol-5-yl)oxy)phenyl)-N—((R)-3-methylbutan-2-yl)-[1,2,4]triazolo[1,5-a]pyrimidin-7-amine] | 0.47 | 0.37
13 | CC(C)[C@@H](C)Nc1c(-c2c(F)cc(O[C@@H]3C[C@@H]4CN(C)C[C@@H]4C3)cc2F)c(Cl)nc2ncnn12 [Example 37, 5-Chloro-6-(2,6-difluoro-4-(((3aR,5r,6aS)-2-methyloctahydrocyclopenta[c]pyrrol-5-yl)oxy)phenyl)-N—((R)-3-methylbutan-2-yl)-[1,2,4]triazolo[1,5-a]pyrimidin-7-amine] | 0.16 | 0.17
14 | C[C@H](Nc1c(-c2c(F)cc(O[C@H]3C[C@H]4CNC[C@H]4C3)cc2F)c(Cl)nc2ncnn12)C(F)(F)F [Example 38, 5-Chloro-6-(2,6-difluoro-4-(((3aR,5r,6aS)-octahydrocyclopenta[c]pyrrol-5-yl)oxy)phenyl)-N—((S)-1,1,1-trifluoropropan-2-yl)-[1,2,4]triazolo[1,5-a]pyrimidin-7-amine] | 0.31 | 0.95
15 | C[C@H](Nc1c(-c2c(F)cc(O[C@@H]3C[C@@H]4CN(C)C[C@@H]4C3)cc2F)c(Cl)nc2ncnn12)C(F)(F)F [Example 39, 5-Chloro-6-(2,6-difluoro-4-(((3aR,5r,6aS)-2-methyloctahydrocyclopenta[c]pyrrol-5-yl)oxy)phenyl)-N—((S)-1,1,1-trifluoropropan-2-yl)-[1,2,4]triazolo[1,5-a]pyrimidin-7-amine] | 0.29 | 0.45
16 | CC(C)[C@@H](C)Nc1c(-c2c(F)cc(O[C@@H]3C[C@H]4CNC[C@H]4C3)cc2F)c(Cl)nc2ncnn12 [Example 40] | 0.17 | 0.69
17 | CC(C)[C@@H](C)Nc1c(-c2c(F)cc(O[C@H]3C[C@@H]4CN(C)C[C@@H]4C3)cc2F)c(Cl)nc2ncnn12 [Example 41, 5-Chloro-6-(2,6-difluoro-4-(((3aR,5s,6aS)-2-methyloctahydrocyclopenta[c]pyrrol-5-yl)oxy)phenyl)-N—((R)-3-methylbutan-2-yl)-[1,2,4]triazolo[1,5-a]pyrimidin-7-amine] | 0.11 | 1.93
18 | C[C@H](Nc1c(-c2c(F)cc(O[C@@H]3C[C@H]4CNC[C@H]4C3)cc2F)c(Cl)nc2ncnn12)C(F)(F)F [Example 42, 5-Chloro-6-(2,6-difluoro-4-(((3aR,5s,6aS)-octahydrocyclopenta[c]pyrrol-5-yl)oxy)phenyl)-N—((S)-1,1,1-trifluoropropan-2-yl)-[1,2,4]triazolo[1,5-a]pyrimidin-7-amine] | 0.25 | 0.73
